Legend:
[1] = molecular target: T1, human TMEM16A (TMEM16Aabc variant) (Homo sapiens, UniProt Q5XXA6, DEL476-501); experiment: Automated whole-cell patch clamp (Qpatch) TMEM16A potentiator assay in recombinant FRT cells; format: cell-based; conditions: for EC50: minimum n = 2; for activation at 3.33 µM: percentage increase of baseline TMEM16A current, minimum n = 2, read-out: % Potentiation @ 3.33 uM Avg
T1 sequence (Q5XXA6 with tags, fused parts or gaps isoform Q5XXA6-5 DEL539-564): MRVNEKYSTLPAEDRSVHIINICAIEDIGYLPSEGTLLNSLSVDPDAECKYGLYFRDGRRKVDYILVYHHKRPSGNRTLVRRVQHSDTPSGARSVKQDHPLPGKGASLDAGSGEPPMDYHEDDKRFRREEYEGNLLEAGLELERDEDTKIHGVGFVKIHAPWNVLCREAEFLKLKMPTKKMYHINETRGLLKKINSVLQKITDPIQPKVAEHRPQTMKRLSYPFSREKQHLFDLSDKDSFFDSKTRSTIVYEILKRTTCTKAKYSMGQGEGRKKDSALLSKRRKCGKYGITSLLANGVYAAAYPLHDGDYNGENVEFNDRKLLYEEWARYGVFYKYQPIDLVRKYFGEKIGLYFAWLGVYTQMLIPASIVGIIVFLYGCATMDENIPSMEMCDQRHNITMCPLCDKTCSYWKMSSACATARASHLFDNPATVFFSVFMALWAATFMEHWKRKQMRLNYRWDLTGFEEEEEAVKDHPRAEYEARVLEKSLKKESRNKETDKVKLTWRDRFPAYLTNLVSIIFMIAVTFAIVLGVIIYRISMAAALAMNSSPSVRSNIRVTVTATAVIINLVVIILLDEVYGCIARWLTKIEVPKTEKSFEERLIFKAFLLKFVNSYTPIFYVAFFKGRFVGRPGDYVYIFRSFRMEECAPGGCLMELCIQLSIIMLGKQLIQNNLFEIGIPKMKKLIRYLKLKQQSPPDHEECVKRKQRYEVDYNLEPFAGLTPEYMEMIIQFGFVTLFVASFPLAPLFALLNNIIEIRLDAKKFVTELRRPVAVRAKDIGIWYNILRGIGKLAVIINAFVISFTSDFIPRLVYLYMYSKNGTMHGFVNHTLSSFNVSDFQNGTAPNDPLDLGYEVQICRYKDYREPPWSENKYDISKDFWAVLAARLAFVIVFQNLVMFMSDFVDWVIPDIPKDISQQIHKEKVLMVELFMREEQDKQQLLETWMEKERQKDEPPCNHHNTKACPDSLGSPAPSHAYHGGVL
Method in brief: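 FRT cells stably expressing human TMEM16Aabc, whole-cell automated patch clamp with intracellular Ca2+ buffered for ~20% maximal current (EC20). Held at −70 mV, step to +70 mV/ramp at 0.05 Hz, cumulative compound additions of 5 min each. Peak +70 mV current increase expressed as % potentiation of baseline.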

[2] = Log D (pH7.4 shake flask); format: physicochemical; conditions: pH 7.4; 1-octanol/phosphate buffer shake flask; read-out: mLogD (pH 7.4)

| Structure (SMILES) | EC50 [1] | logD [2] | activation at 3.33 µM [1] |
| --- | --- | --- | --- |
| CC(C)(C)NC(=O)c1cc(NC(=O)Cc2cc(O)c(C(C)(C)C)cc2F)ccn1 [91 of PCT/GB2019/050209, reference compound] | 55 nM | > 4.5 |  |
| CC(C)(C#N)NC(=O)c1cc(NC(=O)Cc2ccc(C(C)(C)C)c(O)c2)ccn1 [93.4 of PCT/GB2019/050209, reference compound] | 64 nM | > 4.1 | 476% |
| CC(C#N)NC(=O)c1cc(NC(=O)Cc2cc(O)c(C(C)(C)C)cc2F)ccn1 (centres unmarked) [Example 1.3] | 104 nM | 3.9 | 380% |
| CC(C)(O)c1cc(F)c(CC(=O)Nc2ccnc(C(=O)NC3(C(F)(F)F)CC3)c2)cc1O [Example 2, 4-[[2-[2-Fluoro-5-hydroxy-4-(1-hydroxy-1-methyl-ethyl)phenyl]acetyl]amino]-N-[1-(trifluoromethyl)cyclopropyl]pyridine-2-carboxamide] | 64 nM | 3.1 | 243% |
| CC(C)(CO)c1cc(F)c(CC(=O)Nc2ccnc(C(=O)NC3(C(F)(F)F)CC3)c2)cc1O [Example 2.6, 4-[[2-[2-Fluoro-5-hydroxy-4-(2-hydroxy-1,1-dimethyl-ethyl)phenyl]acetyl]amino]-N-[1-(trifluoromethyl)cyclopropyl]pyridine-2-carboxamide] | 30 nM | 3.2 | 270% |
| CCC(C)(O)c1cc(F)c(CC(=O)Nc2ccnc(C(=O)NC3(C(F)(F)F)CC3)c2)cc1O (centres unmarked) [Example 2.11, 4-[[2-[2-Fluoro-5-hydroxy-4-(1-hydroxy-1-methyl-propyl)phenyl]acetyl]amino]-N-[1-(trifluoromethyl)cyclopropyl]pyridine-2-carboxamide] | 64 nM | 3.6 | 390% |
| O=C(Cc1cc(O)c(C2(CO)CCC2)cc1F)Nc1ccnc(C(=O)NC2(C(F)(F)F)CC2)c1 [Example 2.13, 4-[[2-[2-Fluoro-5-hydroxy-4-[1-(hydroxymethyl)cyclobutyl]phenyl]acetyl]amino]-N-[1-(trifluoromethyl)cyclopropyl]pyridine-2-carboxamide] | 37 nM | 3.3 | 339% |
| CC(C)(CCO)c1cc(F)c(CC(=O)Nc2ccnc(C(=O)NC3(C(F)(F)F)CC3)c2)cc1O [Example 11, 4-[[2-[2-Fluoro-5-hydroxy-4-(3-hydroxy-1,1-dimethyl-propyl)phenyl]acetyl]amino]-N-[1-(trifluoromethyl)cyclopropyl]pyridine-2-carboxamide] | 43 nM | 3.7 | 208% |
| CC(C)(CO)c1cc(Cl)c(CC(=O)Nc2ccnc(C(=O)NC3(C(F)(F)F)CC3)c2)cc1O [Example 14, 4-[[2-[2-Chloro-5-hydroxy-4-(2-hydroxy-1,1-dimethyl-ethyl)phenyl]acetyl]amino]-N-[1-(trifluoromethyl)cyclopropyl]pyridine-2-carboxamide] | 33 nM | 3.9 | 490% |
| Cc1cc(C(C)(C)CO)c(O)cc1CC(=O)Nc1ccnc(C(=O)NC2(C(F)(F)F)CC2)c1 [Example 14.1, 4-[[2-[5-Hydroxy-4-(2-hydroxy-1,1-dimethyl-ethyl)-2-methyl-phenyl]acetyl]amino]-N-[1-(trifluoromethyl)cyclopropyl]pyridine-2-carboxamide] | 45 nM | 3.4 | 233% |
| CC(C)(CO)c1cc(Cl)c(CC(=O)Nc2ccnc(C(=O)NC3(C(F)F)CC3)c2)cc1O [Example 15.3, 4-[[2-[2-Chloro-5-hydroxy-4-(2-hydroxy-1,1-dimethyl-ethyl)phenyl]acetyl]amino]-N-[1-(difluoromethyl)cyclopropyl]pyridine-2-carboxamide] | 36 nM | 3.4 | 250% |
| O=C(Cc1cc(O)c(C(CO)C(F)(F)F)cc1F)Nc1ccnc(C(=O)NC2(C(F)(F)F)CC2)c1 (centres unmarked) [Example 17, 4-[[2-[2-Fluoro-5-hydroxy-4-[2,2,2-trifluoro-1-(hydroxymethyl)ethyl]phenyl]acetyl]amino]N-[1-(trifluoromethyl)cyclopropyl]pyridine-2-carboxamide] | 93 nM | 3.3 | 374% |
